From patent publication US12457954B2, “Sorghum plants having a mutant polynucleotide encoding the large subunit of mutated acetohydroxyacid synthase protein and increased resistance to herbicides” (Advanta Holdings BV, priority 2012, dated 2025) come the findings set out here.

What all share (assay type): in vivo, Sorghum bicolor
The subject of test [1] is ADV-IMI-R mutant Sorghum line. In words: Field spraying with imidazolinone herbicides, dry matter of aerial tissues, resistant mutant. The following applies: for DM % Control: ADV-IMI-R, 10 days after spraying, mean of 3 experiments; for Response of ADV-IMI-R mutant to herbicide: field spraying, even at a rate of 4×. As to the method:
(§1) Subsequently, the effect to herbicide spraying on mutant imidazolinone-resistant plants ADV-IMI-R (original mutation) was compared to the response of endogamic Sorghum line 80237 (Advanta proprietary elite line). To that end, plants were treated on the field with three herbicides belonging to the imidazolinone family: imazethapyr, imazapir, and imazapic. Four different rates were assayed: 1×, 2×, 3×, and 4× for each of the herbicides.
(§2) Ten days after spraying, all plants were assayed for dry matter (DM) in aerial tissues.
(§3) The response of the ADV-IMI-R mutant of the invention was compared to that of endogamic line 80237. […] The disclosed values are the average of three experiments.
(§4) Sorghum line 80237 (Advanta's proprietary elite line) and imidazolinone-resistant ADV-IMI-R mutant of the present invention (original mutation) were sprayed on the field with three herbicides from the group of imidazolinones: imazethapyr, imazapyr, and imazapic. Four different rates were assayed for each of the herbicides: 1×, 2×, 3×, and 4× (being 1× the recommended application rate) (see Table 1 above):
(§5) Field experiments were carried out in Venado Tuerto, and planting took place on Dec. 1, 2010. The herbicide was sprayed 20 days after emergence (stage V6). All treatments were compared to their respective untreated controls. The experimental design consisted of plots divided into 3 replicates (main plot: treatment with herbicide; sub-plots: line).
(§6) Ten days after spraying, all plants were assayed for dry matter (DM) in aerial tissues. Herbicide response was assessed as a DM percentage in aerial tissue of the respective untreated control.
(§7) Thus, the line sensitive to herbicides i for each rate j was expressed as:
(§8) [formula] • DMij % Control is the mean value of 3 experiments for each treatment from each line.

Test [2] relates to endogamic Sorghum line 80237. Put plainly: Field spraying with imidazolinone herbicides, dry matter of aerial tissues, wild-type line. The following applies: 10 days after spraying, mean of 3 experiments. As to the method: as §1, §2, §3, §4, §5, §6, §7, §8
Test [3] concerns ADV-IMI-R × 90523 F2 progeny. In words: Phenotypic rating of segregating F2 population after spraying with imazethapyr. The following applies: rate 3X. As to the method: Inheritance of resistance to imidazolinones, for example imazethapyr, was assessed in a segregating F2 Sorghum population generated by crossing an imazethapyr susceptible line with the ADV-IMI-R mutant. The F2 plants thus obtained were sprayed with imazethapyr (Pivot®, BASF) at a rate of 3×, 20 days in stage V6 after emergence and phenotypic symptoms were assessed 10 days after treatment.
The correlation between resistance phenotypes and the number of mutant alleles was analyzed using the SNP-SbAHAS marker. To that end, chlorosis and death phenotypes of individual plants from the F2 progeny (ADV-IMI-R×90523) were studied after spraying with imazethapyr. Concomitantly, the genotype of the SNP-SbAHAS marker was studied. The correlation between the molecular marker SNP-SbAHAS and resistance to imazethapyr (measured as a rating of phenotypes) was determined using the Chi-square Independence test.
A targeted crossing was carried out between Sorghum line 90523 (Advanta proprietary elite line, susceptible to imidazolinones) and the imidazolinone-resistant ADV-IMI-R mutant (VT09-9754-48-6-BK selection). The resulting F1 plants were auto-pollinated and F2 seeds were harvested. The F2 seeds were planted in the field in Venado Tuerto, in October 2010. The F2 plants (177 plants) were sprayed with imazethapyr (Pivot®, BASF) at a rate of 3× (where 1× is the rate recommended by the manufacturer for commercial use which is equivalent to 100 ml a.i./ha). Before spraying, leaf tissue from each of the 177 F2 plants from both ADV-IMI-R mutant (VT09-9754-48-6-BK selection) and wild-type line 90523 were collected to isolate genomic DNA, which was resuspended in water at a final concentration of 100 ng/μl for use in genotypic analysis.
Herbicide was sprayed 20 days after emergence (stage V6). The plants were assessed ten days after spraying, and the herbicidal effect was classified into three categories by visually assessed symptoms according to the following phenotypic scoring: • 1=no damage • 2=chlorotic • 3=death
Individual F2 progeny plants obtained by a ADV-IMI-R×90523 crossing were phenotypically classified (no damage, chlorosis and death) after spraying with imazethapyr (using the method of Example 4) and then genotypically classified using the molecular marker SNP-SbAHAS which is specific of the induced mutation in AHAS (using the method described in Example 5).

The mark [4] stands for this setting: 10 days after treatment, 177 F2 plants.

Take `Cc1cnc(C2=NC(=O)C(C)(C(C)C)N2)c(C(=O)O)c1` (centres unmarked) [Imazapic]: the “DM % Control” value stood at 161% in test [1] (rate 1X); 123% in test [1] (rate 2X); 244% in test [1] (rate 3X); 272% in test [1] (rate 4X); 22% in test [2] (rate 1X); 13% in test [2] (rate 2X). The “DM % Control” value in test [2] (rate 3X) is listed as 15%; in test [2] (rate 4X) it was 28%. Moreover, in test [1], the “Response of ADV-IMI-R mutant to herbicide” value (“Response of ADV-IMI-R mutant” for short) was “resistant”.
On to `CC(C)C1(C)N=C(c2ncccc2C(=O)O)NC1=O` (centres unmarked) [Imazapyr], for which the “DM % Control” value in test [1] (rate 1X) stood at 139%; in test [1] (rate 2X), 140%; in test [1] (rate 3X) it was 235%; in test [1] (rate 4X), 191%; in test [2] (rate 1X), 14%; in test [2] (rate 2X), 21%. Moreover, the “DM % Control” value came out at 14% in test [2] (rate 3X) and 19% in test [2] (rate 4X). For the same compound, the “Response of ADV-IMI-R mutant” value in test [1] was “resistant”.
As for `CCc1cnc(C2=NC(C)(C(C)C)C(=O)N2)c(C(=O)O)c1` (centres unmarked) [Imazethapyr], the “DM % Control” value in test [1] (rate 1X) was determined as 162%; in test [1] (rate 2X) it was 175%; in test [1] (rate 3X) it was 263%; in test [1] (rate 4X) it was 273%; in test [2] (rate 1X) it was 17%; in test [2] (rate 2X), 12%. Moreover, the “DM % Control” value in test [2] (rate 3X) was 14%; in test [2] (rate 4X), 23%. Also, in test [1], the “Response of ADV-IMI-R mutant” value is on record as “resistant”. Further, the “Amount of F2 progeny, phenotype Chlorotic (rating 2)” value in test [3] (setting [4]) worked out at 84. Further, in test [3] (setting [4]), the “Amount of F2 progeny, phenotype Death (rating 3)” value was found to be 43. In test [3] (setting [4]), the “Amount of F2 progeny, phenotype No damage (rating 1)” value is given as 50. The “Amount of F2 individuals, genotype A/G, phenotype Chlorotic” value in test [3] (heterozygous) came to 83. In test [3] (heterozygous), the “Amount of F2 individuals, genotype A/G, phenotype No damage” value was determined as 13. Further, the “Amount of F2 individuals, genotype A/A, phenotype Chlorotic” value in test [3] (homozygous AHAS mutant) amounted to 1. Besides, in test [3] (homozygous AHAS mutant), the “Amount of F2 individuals, genotype A/A, phenotype No damage” value was determined as 37. For the same compound, in test [3] (wild-type homozygous), the “Amount of F2 individuals, genotype G/G, phenotype Death” value was determined as 43.
